The assay concerns erythroid colonies (hematopoietic progenitors). Put plainly: Hematopoietic CFC assay with anti-GpA-FITC staining, erythroid colony formation in cultures containing 5-FU. It counts as cell-based, Human. Particulars: erythroid colonies stained with anti-GPA-FITC, day 14, densitometry. The protocol: Human BM, CB or MPB mononuclear cells were suspended in a methylcellulose-based culture medium containing cytokines (MethoCult™ H4434, StemCell Technologies) (StemCell Technologies Methocult™ Flyer; StemCell Technologies 2003 Catalogue pp. 86-125) at a concentration of between 1×10^4 and 1×10^5 cells per 1.1 mL of medium. The culture medium was then dispensed into 35 mm culture dishes using 3 mL syringes with blunt end needles, with 1.1 mL of medium per dish. All cultures were incubated for a total of 14 days at 37° C., 5% CO2, 100% humidity. Colonies were enumerated and classified by bright-field microscopy into the following categories based on size and morphology: CFU-E, BFU-E, CFU-GM, CFU-GEMM (StemCell Technologies Colony Atlas).
Standard CFC assays were prepared as described in example 1. […] After 14 days of culture at 37° C. the dishes were inspected using an inverted fluorescence microscope. […] The erythroid colonies were counted using bright field and fluorescence. Both methods gave very similar results: 27 colonies per dish by bright field illumination; 26 colonies by fluorescence.
A CFC-assay was set up as described in Example 2. […] Colonies were examined and photographed on day 14 and colony size and fluorescence intensity were analysed by densitometry.

Structures are written as SMILES.

Take `O=c1[nH]cc(F)c(=O)[nH]1` [5-FU, 5-Fluoro-Uracil]: the “size of fluorescent colonies, as measured by surface area and perimeter length” value (versus cultures without 5-FU (FIG. 4A)) is “decreased”. In addition, where the note is “versus cultures without 5-FU (FIG. 4B)”, the “fluorescence intensity of colonies” value is “decreased”.

The values above are taken from patent US20070059778A1, “Modified colony assay” (priority 2005, published 2007).
